Assay results published in patent publication US9353382B2, “Process, vectors and engineered cell lines for enhanced large-scale transfection” (National Research Council of Canada, priority 2008, dated 2016).

Tests used:
[1] = system: CHO-EBNA1c (clone 3E7) cells; assay: Effect of FGF2 co-expression on transient SEAP expression in CHO-EBNA1c cells; format: cell-based, Chinese Hamster; details: 25% pTT-SEAP, 0-70% FGF2 plasmid; 7 days post-transfection
Procedure: (§1) Secreted alkaline phosphatase activity determination: SEAP activity is measured as previously described using the colorimetric substrate paranitrophenyl phosphate (Durocher et al, 2000).
(§2) Referring to FIG. 9, graphs are shown illustrating the effect of FGF2 (bFGF) co-expression on transient gene expression in HEK293-EBNA1t (clone 6E) cells (upper panel) and CHO-EBNA1c (clone 3E7) cells (lower panel). The HEK293-EBNA1t and CHO-EBNA1c cells were transfected with 25% pTT-SEAP vector and increasing amounts (0%, 15%, 30%, 45%, 60% and 70%) of FGF2-encoding pTT plasmid (the overall content of DNA was kept constant with non-coding stDNA). SEAP activity (OD/min at 410 nm) was measured in the supernatant 7 days post-transfection. From the upper panel it is evident that SEAP activity in HEK293-EBNA1t cells is decreased by co-expression of FGF2. From the lower panel it is evident that SEAP activity in CHO-EBNA1c cells is increased by co-expression of FGF2. […] Increased productivity in CHO cells may be due to a FGF-induced rRNA synthesis.

[2] = system: HEK293-EBNA1t (clone 6E) cells; assay: Effect of FGF2 co-expression on transient SEAP expression in HEK293-EBNA1t cells; format: cell-based, human; details: 25% pTT-SEAP, 0-70% FGF2 plasmid; 7 days post-transfection
Procedure: as §1, §2

[3] = system: CHO-EBNA1c (clone 3E7) cells; assay: Effect of PKB (AKT) and valproic acid on transient gene expression (SEAP); format: cell-based, Chinese Hamster; details: 0.25 mM VPA added 24 hours post-transfection; days 5 to 8 post-transfection
Procedure: as §1
Referring to FIG. 10, the effect of PKB (AKT) and valproic acid (VPA) on transient gene expression in CHO-EBNA1c (clone 3E7) cells is illustrated. The CHO-EBNA1c cells were transfected with a mixture of SEAP-encoding oriP plasmids (pTT-SEAP) and stuffer DNA or pTT-AKTdd vector (AKTdd is a dominant-positive mutant of AKT). In some cases, 0.25 mM VPA was added 24 hours post-transfection. SEAP activity (ΔA410/min) was measured at days 5 to 8 post-transfection.

Row | Compound | SEAP activity on co-expression of FGF2 [1] | SEAP activity on co-expression of FGF2 [2] | effect on transient gene expression (SEAP activity) [3]
1 | FGF2 | increased | decreased | 
2 | CCCC(CCC)C(=O)O [valproic acid] |  |  | increases transient gene expression
